Data published in PubChem BioAssay AID248 (DTP/NCI, 2004).
“And” between values parts separate entries of the source, which are not always exact repeats. Equal values may be shown once. Toxic doses and inconclusive results are not listed. No stated cut-off is given here; in the data, active means T/C of 150% or more; inactive means T/C below 125%.

Tested on: L1210 leukemia ip in BDF1 mice, survival T/C
Experiment: NCI In Vivo Anticancer Drug Screen. Data for tumor model L1210 Leukemia (intraperitoneal) in B6D2F1 (BDF1) mice
Conditions: endpoint: mean survival time, higher = longer survival
In short: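 Ratio derived from survival: compound-dosed mice over vehicle-dosed mice, all bearing a transplantable tumor.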

[1] = dose: 100.0 mg/kg/injection, schedule: Q01DX001 (ip), vehicle: saline with Tween-80
[2] = dose: 400.0 mg/kg/injection, schedule: Q01DX001 (ip), vehicle: saline with Tween-80
[3] = dose: 100.0 mg/kg/injection, schedule: Q04DX003 (ip), vehicle: saline
[4] = dose: 200.0 mg/kg/injection, schedule: Q04DX003 (ip), vehicle: saline
[5] = dose: 400.0 mg/kg/injection, schedule: Q04DX003 (ip), vehicle: saline
[6] = dose: 100.0 mg/kg/injection, schedule: Q01DX009 (ip), vehicle: saline
[7] = dose: 100.0 mg/kg/injection, schedule: Q04DX003 (ip), vehicle: Klucel (hydroxypropylcellulose) (HPC)
[8] = dose: 200.0 mg/kg/injection, schedule: Q01DX009 (ip), vehicle: Klucel (hydroxypropylcellulose) (HPC)
[9] = dose: 200.0 mg/kg/injection, schedule: Q04DX003 (ip), vehicle: Klucel (hydroxypropylcellulose) (HPC)
[10] = dose: 400.0 mg/kg/injection, schedule: Q04DX003 (ip), vehicle: Klucel (hydroxypropylcellulose) (HPC)

Measured: T/C

CC(C)(C)CC(C)(C)c1ccc(OCCOCCOc2ccc([N+](=O)[O-])cc2)cc1
inactive: dose: 100.0 mg/kg/injection, schedule: Q01DX009 (ip), vehicle: saline sonified 94 % of control | dose: 200.0 mg/kg/injection, schedule: Q01DX009 (ip), vehicle: saline sonified 96 % of control | dose: 400.0 mg/kg/injection, schedule: Q01DX009 (ip), vehicle: saline sonified 94 % of control

CC(C#N)N(C)C (configuration not stated)
inactive: dose: 5.0 mg/kg/injection, schedule: Q01DX001 (ip), vehicle: saline 96 % of control | dose: 10.0 mg/kg/injection, schedule: Q01DX001 (ip), vehicle: saline 104 % of control | dose: 10.0 mg/kg/injection, schedule: Q01DX009 (ip), vehicle: saline 98 % of control | dose: 20.0 mg/kg/injection, schedule: Q01DX001 (ip), vehicle: saline 102 % of control | dose: 20.0 mg/kg/injection, schedule: Q01DX009 (ip), vehicle: saline 109 % of control | dose: 40.0 mg/kg/injection, schedule: Q01DX009 (ip), vehicle: saline 98 % of control

CC(C)CCCC(C)C1CCC2C3CC(O)C45CC4CCC5(C)C3CCC12C (configuration not stated)
inactive: dose: 200.0 mg/kg/injection, schedule: Q04DX002 (ip), vehicle: Klucel (hydroxypropylcellulose) (HPC) 89 % of control | dose: 400.0 mg/kg/injection, schedule: Q04DX002 (ip), vehicle: Klucel (hydroxypropylcellulose) (HPC) 92 % of control

COC(=O)c1ccc(=O)oc1
inactive: dose: 50.0 mg/kg/injection, schedule: Q01DX009 (ip), vehicle: gum acacia 105 % of control | dose: 100.0 mg/kg/injection, schedule: Q01DX009 (ip), vehicle: gum acacia 100 % of control | dose: 100.0 mg/kg/injection, schedule: Q04DX003 (ip), vehicle: gum acacia 98 % of control | dose: 200.0 mg/kg/injection, schedule: Q01DX009 (ip), vehicle: gum acacia 88 % of control | dose: 200.0 mg/kg/injection, schedule: Q04DX003 (ip), vehicle: gum acacia 100 % of control

CCN(CC)CCCC(C)Nc1ccccn1 (configuration not stated)
inactive: dose: 75.0 mg/kg/injection, schedule: Q01DX001 (ip), vehicle: carboxymethylcellulose (CMC) 102 % of control | dose: 150.0 mg/kg/injection, schedule: Q01DX001 (ip), vehicle: carboxymethylcellulose (CMC) 100 % of control

C(CCCCCC1CCCC2CCCCC12)CCCCC1CCCC2CCCCC12 (configuration not stated)
inactive: [1] 98 % of control | dose: 200.0 mg/kg/injection, schedule: Q01DX001 (ip), vehicle: saline with Tween-80 98 % of control | [2] 98 % of control

O=[N+]([O-])C1C=CCS1(=O)=O (configuration not stated)
inactive: [3] 95 % of control | [4] 96 % of control | [5] 86 % of control

O=C(CCl)Oc1cccc([N+](=O)[O-])c1
inactive: dose: 25.0 mg/kg/injection, schedule: Q01DX009 (ip), vehicle: saline with Tween-80 92 % of control | dose: 50.0 mg/kg/injection, schedule: Q01DX009 (ip), vehicle: saline with Tween-80 112 % of control | dose: 100.0 mg/kg/injection, schedule: Q01DX009 (ip), vehicle: saline with Tween-80 107 % of control | dose: 100.0 mg/kg/injection, schedule: Q04DX003 (ip), vehicle: saline with Tween-80 91 % of control | dose: 200.0 mg/kg/injection, schedule: Q04DX003 (ip), vehicle: saline with Tween-80 96 % of control | dose: 400.0 mg/kg/injection, schedule: Q04DX003 (ip), vehicle: saline with Tween-80 94 % of control

c1ccc2c(c1)OCCOCCOc1ccccc1OCCOCCO2
inactive: [6] 98 % of control and 89 % of control | [3] 94 % of control and 92 % of control | dose: 200.0 mg/kg/injection, schedule: Q01DX009 (ip), vehicle: saline 101 % of control and 92 % of control | [4] 93 % of control and 92 % of control | dose: 400.0 mg/kg/injection, schedule: Q01DX009 (ip), vehicle: saline 94 % of control and 91 % of control | [5] 89 % of control and 90 % of control

CCCCCc1ccc(/C(C)=N/NC(=O)c2ccc[n+](C)c2)cc1
inactive: dose: 6.25 mg/kg/injection, schedule: Q04DX003 (ip), vehicle: saline 101 % of control | dose: 12.5 mg/kg/injection, schedule: Q04DX003 (ip), vehicle: saline 95 % of control | dose: 25.0 mg/kg/injection, schedule: Q04DX003 (ip), vehicle: saline with Tween-80 98 % of control | dose: 25.0 mg/kg/injection, schedule: Q04DX003 (ip), vehicle: saline 95 % of control

O=C1C(Br)=CC(=NCl)C=C1Br
inactive: dose: 6.25 mg/kg/injection, schedule: Q01DX009 (ip), vehicle: DMSO 87 % of control | dose: 12.5 mg/kg/injection, schedule: Q01DX009 (ip), vehicle: DMSO 94 % of control | dose: 12.5 mg/kg/injection, schedule: Q04DX002 (ip), vehicle: DMSO 103 % of control | dose: 25.0 mg/kg/injection, schedule: Q04DX002 (ip), vehicle: DMSO 95 % of control

Cc1ccc(S(=O)(=O)NCCC(=N)N)cc1
inactive: dose: 100.0 mg/kg/injection, schedule: Q01DX001 (ip), vehicle: saline 93 % of control | dose: 200.0 mg/kg/injection, schedule: Q01DX001 (ip), vehicle: saline 101 % of control

CSCOC1C(COC(c2ccccc2)(c2ccccc2)c2ccccc2)OC(OCc2ccccc2)C(NC(C)=O)C1OCc1ccccc1 (configuration not stated)
inactive: dose: 25.0 mg/kg/injection, schedule: Q01DX001 (ip), vehicle: saline with Tween-80 95 % of control | dose: 50.0 mg/kg/injection, schedule: Q01DX001 (ip), vehicle: saline with Tween-80 91 % of control | [1] 101 % of control and 91 % of control | [2] 94 % of control

CCCCOP(=O)(OCCCC)Oc1cccc([N+](=O)[O-])c1
inactive: dose: 6.25 mg/kg/injection, schedule: Q01DX009 (ip), vehicle: carboxymethylcellulose (CMC) 117 % of control and 89 % of control | dose: 6.25 mg/kg/injection, schedule: Q04DX002 (ip), vehicle: carboxymethylcellulose (CMC) 93 % of control and 101 % of control | dose: 12.5 mg/kg/injection, schedule: Q01DX009 (ip), vehicle: carboxymethylcellulose (CMC) 110 % of control and 89 % of control | dose: 12.5 mg/kg/injection, schedule: Q04DX002 (ip), vehicle: carboxymethylcellulose (CMC) 93 % of control and 101 % of control | dose: 25.0 mg/kg/injection, schedule: Q01DX001 (ip), vehicle: carboxymethylcellulose (CMC) 104 % of control | dose: 25.0 mg/kg/injection, schedule: Q01DX009 (ip), vehicle: carboxymethylcellulose (CMC) 98 % of control and 92 % of control | dose: 50.0 mg/kg/injection, schedule: Q01DX001 (ip), vehicle: carboxymethylcellulose (CMC) 100 % of control

O=C1NC(=O)C2C(c3ccccc3)=NOC2N1 (configuration not stated)
inactive: dose: 100.0 mg/kg/injection, schedule: Q01DX009 (ip), vehicle: Klucel (hydroxypropylcellulose) (HPC) 103 % of control | [7] 97 % of control | [8] 103 % of control | [9] 90 % of control | dose: 400.0 mg/kg/injection, schedule: Q01DX009 (ip), vehicle: Klucel (hydroxypropylcellulose) (HPC) 98 % of control | [10] 97 % of control

CC(C)CCOC(=O)C1OC1(C)c1ccccc1 (configuration not stated)
inactive: dose: 100.0 mg/kg/injection, schedule: Q04DX002 (ip), vehicle: saline 101 % of control | dose: 200.0 mg/kg/injection, schedule: Q04DX002 (ip), vehicle: saline 93 % of control | dose: 400.0 mg/kg/injection, schedule: Q04DX002 (ip), vehicle: saline 112 % of control

C#CC(C)OCC(O)CCl (configuration not stated)
inactive: dose: 25.0 mg/kg/injection, schedule: Q01DX009 (ip), vehicle: saline 97 % of control | dose: 50.0 mg/kg/injection, schedule: Q01DX009 (ip), vehicle: saline 105 % of control | [6] 103 % of control and 89 % of control | dose: 100.0 mg/kg/injection, schedule: Q04DX003 (ip), vehicle: saline sonified 97 % of control | dose: 200.0 mg/kg/injection, schedule: Q04DX003 (ip), vehicle: saline sonified 87 % of control | dose: 400.0 mg/kg/injection, schedule: Q04DX003 (ip), vehicle: saline sonified 103 % of control

c1ccc(-c2cccc3c2N=C2C3=Nc3c2cccc3-c2ccccc2)cc1
inactive: [7] 96 % of control | [9] 95 % of control | [10] 93 % of control

COc1cc2c(c(OC)c1OC)-c1ccc(SC)c(=O)cc1C(N(C)C)CC2 (configuration not stated)
inactive: [8] 93 % of control

CC(C)CC(C)OC(=O)CCl (configuration not stated)
inactive: [3] 107 % of control | [4] 105 % of control | [5] 88 % of control

C/C(=C\Br)OC1CCCCO1 (configuration not stated)
inactive: dose: 100.0 mg/kg/injection, schedule: Q01DX009 (ip), vehicle: acetone 96 % of control | dose: 200.0 mg/kg/injection, schedule: Q01DX009 (ip), vehicle: acetone 96 % of control | dose: 400.0 mg/kg/injection, schedule: Q01DX009 (ip), vehicle: acetone 92 % of control
